The values below come from PubChem BioAssay (NCI).

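A five-concentration, 48-hour dose response in 96-well plates underlies each endpoint, interpolated linearly between surrounding concentrations. At the GI50, growth is halved. The concentration for full growth arrest is given as TGI.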 A value given as a limit tells only on which side of the number the result lay.

Experiment in all cases: NCI-60 cell line screen, 48 h
Experiment [1] has as its system U251 CNS.
For experiment [2], the system named is UACC-62 melanoma.
The test system of experiment [3] is OVCAR-8 ovarian.
The subject of experiment [4] is 786-0 renal.
Experiment [5] concerns A498 renal.
Experiment [6] deals with M14 melanoma.
For experiment [7], the system named is SK-MEL-2 melanoma.
In experiment [8] the test system is LOX IMVI melanoma.
In experiment [9] the test system is NCI-H23 lung.
Experiment [10] relates to BT-549 breast.

For the molecule `CN1CCCCC(C(O)(c2ccccc2)c2ccccc2)C1=O` (stereo not drawn), the TGI in experiment [1], in experiment [2], in experiment [3], in experiment [4], in [5] and in [6] was more than 100 µM in each case. Besides, the TGI in experiment [7], in [8] and in [9] was more than 100 µM in each case.
Consider `O=C(C#Cc1cn(C2CC(O)C(CO)O2)c(=O)[nH]c1=O)c1ccccc1` (stereo not drawn), for which the TGI in experiment [10], in [1], in [2], in experiment [3], in experiment [4] and in experiment [6] was more than 100 µM each time. The TGI in [7], in experiment [8] and in experiment [9] was more than 100 µM each time.
Turning to `CN(c1ccccc1Cl)S(=O)(=O)c1ccccc1[N+](=O)[O-]`, the TGI was more than 100 µM in experiment [10]; more than 100 µM in experiment [1]; more than 100 µM in experiment [2]; more than 100 µM in experiment [3]; more than 100 µM in experiment [4]; 46.3 µM in experiment [6]. Also, the TGI in experiment [7], in experiment [8] and in experiment [9] was more than 100 µM throughout.
Take `Clc1ncnc2c1ncn2CCCCCCCCCCCCn1cnc2c(Cl)ncnc21`: the TGI was 23.7 µM in experiment [1]; 26.9 µM in experiment [2]; 23.8 µM in [3]; 71.8 µM in experiment [4]; 24.6 µM in experiment [5]; 29.6 µM in experiment [6]. Further, the figures for the TGI in experiment [7], in experiment [8] and in experiment [9] were 26.4 µM, 7.19 µM and 10.8 µM, respectively.
`c1ccc(C2=C(c3ccccc3)P(c3ccccc3)C2)cc1` (stereo not drawn): the TGI in experiment [1], in experiment [3], in experiment [4], in [5], in [6] and in [7] was more than 100 µM throughout.
With `CCOC(=O)N(C)C1(c2ccccc2)CCN(CCCC(=O)c2ccc(F)cc2)CC1`, the TGI in experiment [1] was more than 100 µM; in experiment [2], more than 100 µM; in experiment [3], more than 100 µM; in experiment [4], 88.7 µM; in experiment [5], more than 100 µM; in [6] it was 32.1 µM. Also, the TGI in [7] is 53.5 µM; in [8] it was 42.3 µM; in experiment [9] it was more than 100 µM.
With `O=C(c1ccccc1)N1C(=S)N(c2ccc([N+](=O)[O-])cc2)C(=Nc2ccccc2)C1=Nc1ccccc1`, the TGI in [10], in [1], in experiment [2], in experiment [3], in experiment [4] and in [6] was more than 100 µM each time. Also, the TGI in [7] and in [9] was more than 100 µM throughout.
Turning to `CC(=O)OCC1OC(c2nnc(C)o2)=CC(OC(C)=O)C1OC(C)=O` (stereo not drawn), the TGI in experiment [10], in [1], in [3], in experiment [4], in experiment [5] and in experiment [8] was more than 100 µM each time. The same molecule gave a TGI in experiment [9] of more than 100 µM.
Turning to `CC[C@@H]1CC[C@@H]2[C@H](CC[C@]3(C)[C@@H](OS(=O)(=O)c4ccc(C)cc4)CC[C@@H]23)[C@H]1CO`, the TGI in experiment [10], in experiment [1], in experiment [3], in [4], in experiment [5] and in experiment [6] was more than 100 µM each time. Also, the TGI in experiment [8] and in [9] was more than 100 µM in each case.
Consider `Cc1c(F)c(N)c2c(=O)cc(-c3ccc(NC(=O)C(N)CCCN=C(N)N)c(F)c3)oc2c1F` (stereo not drawn), for which the TGI is 51.5 µM in experiment [10]; more than 55.3 µM in experiment [1]; more than 82.8 µM in experiment [3]; more than 100 µM in experiment [4]; 0.281 µM in [5]; 97.1 µM in [6]. For the same molecule, the figures for the TGI in experiment [7], in [8] and in experiment [9] were 60 µM, more than 100 µM and more than 73.8 µM, respectively.
As to `O=C(O)/C=C/C(=O)O`, the TGI in experiment [1], in experiment [3], in experiment [4], in experiment [6], in experiment [7] and in experiment [8] was more than 100 µM throughout. The molecule also yielded a TGI in experiment [9] of more than 100 µM.
As to `NC(=O)NCCCC(NC(=O)OCCCCCn1ccc(=O)[nH]c1=O)C(=O)O` (stereo not drawn), the TGI in [10], in [1], in experiment [2], in [3], in [4] and in experiment [6] was more than 100 µM throughout. For the same molecule, the TGI in experiment [7], in experiment [8] and in experiment [9] was more than 100 µM in each case.
For `CCOC(=O)C(=Cn1c(=S)[nH]c2ccc([N+](=O)[O-])cc21)C(=O)OCC`, the TGI in [1], in [2], in experiment [3], in experiment [4], in experiment [5] and in experiment [6] was more than 100 µM in each case. The TGI in experiment [7], in experiment [8] and in experiment [9] was more than 100 µM throughout.
Regarding `COc1ccc2c(c1)-c1oc3ccccc3c(=O)c1CO2`, the TGI in [10] is 96.8 µM; in experiment [1], more than 100 µM; in [2] it was more than 100 µM; in experiment [3], more than 100 µM; in experiment [4] it was more than 100 µM; in [6], more than 100 µM. The figures for the TGI in experiment [7], in experiment [8] and in experiment [9] were 83.3 µM, 44.5 µM and more than 100 µM, respectively.
Consider `COC(=O)c1cccc(C(=O)OC)c1`, for which the TGI in [1], in [5], in [6], in [7], in experiment [8] and in [9] was more than 100 µM each time.
Take `O=C(Nc1cccc(-n2ccc3c(NC(=O)c4ccccc4)nccc32)c1)c1cc(N2CCOCC2)cc(C(F)(F)F)c1`: the GI50 in experiment [1] was 0.118 µM; in experiment [2] it was 0.0511 µM; in experiment [3] it was 0.286 µM; in experiment [5], 0.0315 µM; in experiment [6], 0.125 µM; in experiment [7] it was 0.167 µM. Also, the figures for the GI50 in experiment [8] and in experiment [9] were 0.0912 µM and 0.613 µM, respectively. Besides, the TGI in [1] is more than 100 µM; in experiment [2], more than 44.2 µM; in [3], more than 100 µM; in [5] it was 0.729 µM; in experiment [7], 3.82 µM; in [8], more than 100 µM. The TGI in experiment [9] is more than 100 µM.
For `N#Cc1nc(/C=C/c2ccccc2)oc1N`, the TGI in [10], in experiment [1], in [3], in [4], in [5] and in [6] was more than 100 µM each time. Besides, the TGI in experiment [7], in experiment [8] and in experiment [9] was more than 100 µM in each case.
Consider `COc1nc2[nH]ccc2c(=O)n1C`, for which the TGI in experiment [1], in experiment [3], in experiment [5], in experiment [6], in experiment [7] and in experiment [8] was more than 100 µM throughout. In experiment [9], the TGI was more than 100 µM.
For `CC(=O)Nc1ccc(-c2nnc(SCC(=O)Nc3ccccc3C)o2)cc1`, the TGI in [1], in experiment [2], in experiment [3], in [4], in experiment [6] and in [7] was more than 100 µM each time. Further, the TGI in experiment [8] and in experiment [9] was more than 100 µM throughout.
Turning to `COC(=O)CCN(CCC(=O)OC)C1CC1`, the TGI in experiment [1], in [2], in [3], in experiment [4], in experiment [5] and in [6] was more than 100 µM each time. Besides, the TGI in experiment [8] and in experiment [9] was more than 100 µM each time.
Regarding `O=C(NN1C(=O)C=CC1=O)c1ccccc1Nc1ccccc1C(=O)NN1C(=O)C=CC1=O`, the TGI in experiment [10], in experiment [1], in experiment [2], in experiment [3], in experiment [4] and in [6] was more than 100 µM in each case. Besides, the TGI in experiment [7], in experiment [8] and in experiment [9] was more than 100 µM throughout.
As to `O=C1/C(=C/c2ccco2)NC(=S)N1CN1CCOCC1`, the TGI in experiment [1], in [2], in experiment [3], in experiment [4], in [5] and in experiment [6] was more than 100 µM each time. The TGI in [7], in experiment [8] and in experiment [9] was more than 100 µM in each case.
Take `CCOC(=O)C(NCc1cccc(C(F)(F)F)c1)(NC(=O)c1ccccc1)C(F)(F)F` (stereo not drawn): the TGI in experiment [10] is 56.1 µM; in [1], more than 100 µM; in experiment [2] it was 30.9 µM; in [3] it was more than 100 µM; in experiment [4] it was 79.5 µM; in experiment [6], more than 100 µM. The values for the TGI in experiment [7], in experiment [8] and in experiment [9] were more than 100 µM, 48.3 µM and 70.8 µM, respectively.
Regarding `COc1cc(C(SCc2ccccc2)SCc2ccccc2)ccc1O`, the TGI in [1], in experiment [2], in experiment [3], in experiment [4], in [5] and in [6] was more than 10 µM in each case. Moreover, the TGI in experiment [7] and in [8] was more than 10 µM in each case.
Regarding `O=C(O)c1ccc(Nc2nc3ccccc3nc2C(=O)O)cc1`, the TGI in experiment [10], in experiment [1], in [2], in [3], in [4] and in experiment [6] was more than 100 µM throughout. For the same molecule, the TGI in experiment [7] and in [9] was more than 100 µM in each case.
In the case of `CN(C)CC(NC(NCS)C(=O)NCCNc1ccc(NCCNC(=O)C(NCS)NC(CN(C)C)OCCl)c2c1C(=O)c1c(O)ccc(O)c1C2=O)OCCl` (stereo not drawn), the TGI came out at 0.0575 µM in experiment [1]; 1.6 µM in experiment [2]; 2.76 µM in [5]; 2.99 µM in [7]; 1.85 µM in [8]; 0.111 µM in experiment [9]. The GI50 in experiment [3] is 0.0436 µM; in experiment [6] it was 0.506 µM.
On to `CC(C)(NC1=NCCO1)c1ccccc1`, for which the TGI in experiment [1], in experiment [2], in [3], in experiment [4], in experiment [5] and in [6] was more than 100 µM each time. Also, the TGI in experiment [7], in [8] and in experiment [9] was more than 100 µM throughout.
As for `c1ccc(Nc2nnc(-c3nsc4ccccc34)o2)cc1`, the TGI in experiment [1], in experiment [2], in [3], in experiment [6], in [7] and in experiment [8] was more than 100 µM in each case. This molecule also showed a TGI in [9] of more than 100 µM.
Turning to `CN1CC2CC(C1)c1cccc(=O)n1C2` (stereo not drawn), the TGI in experiment [10], in experiment [1], in experiment [2], in experiment [3], in [4] and in experiment [6] was more than 100 µM throughout. For the same molecule, the TGI in experiment [7], in experiment [8] and in experiment [9] was more than 100 µM each time.
Take `OCCO[P+]1(OCCO)n2c3ccc2C(c2ccccc2)=C2C=CC(=N2)C(c2ccccc2)=c2ccc(n21)=C(c1ccccc1)C1=NC(=C3c2ccccc2)C=C1`: the TGI came out at 0.305 µM in experiment [10]; 1.25 µM in experiment [1]; 0.17 µM in [3]; 1.28 µM in experiment [4]; 1.49 µM in [5]; 0.278 µM in [6]. Further, the TGI in [7] turned out to be 0.0438 µM; in experiment [9] it was 0.327 µM.
`COc1ccc(/C=C2\CN(C)Cc3c2[nH]c(=O)c(C#N)c3-c2ccc(OC)cc2)cc1`: the TGI in experiment [10] was more than 100 µM; in experiment [1], more than 100 µM; in experiment [2] it was more than 100 µM; in experiment [3], more than 100 µM; in experiment [4] it was 51.1 µM; in experiment [6], more than 100 µM. For the same molecule, the TGI in experiment [7], in experiment [8] and in [9] was more than 100 µM each time.
